{"source": "paper PMC12391994", "about": "“Synthesis of a fac-Tricarbonylrhenium(I) Complex with Pyrithione, Its Physicochemical Characterization, and Assessment of Biological Effects” (ACS Omega, 2025)", "key": {"[1]": {"molecular_target": "T1, cathepsin B (exopeptidase activity) (Homo sapiens, UniProt P07858)", "T1 construct": "made in house; host or cells: E. coli", "experiment": "Relative inhibition of cathepsin B exopeptidase activity", "type": "biochemical", "conditions": "50 μM; substrate Abz-Gly-Ile-Val-Arg-Ala-Lys-(Dnp)-OH; pH 5.0", "source_text": "Relative inhibition is expressed as a percentage of the decrease in reaction velocity in the presence of an inhibitor, in comparison to the reaction velocity in the absence of an inhibitor. For that purpose, the specific fluorogenic substrates Z-Arg-Arg-7-amido-4-methylcoumarin (Z-Arg-Arg-AMC) and 2-aminobenzoyl (Abz)-Gly-Ile-Val-Arg-Ala-Lys-(Dnp)-OH were used for cathepsin B endopeptidase and exopeptidase activities, respectively, and Z-Phe-Arg-AMC was used for cathepsin L and V activities.\nHuman recombinant cathepsin B was expressed in E. coli, recombinant cathepsin V was expressed in Pichia pastoris, and human recombinant cathepsin L was expressed in E. coli, as reported. − For the determination of cathepsin B endopeptidase and exopeptidase activities, 100 mM phosphate buffer (pH 6.0) and 60 mM acetate buffer (pH 5.0) were used, respectively, and for the determination of cathepsin V and L activities, 100 mM acetate buffer (pH 5.5) was used. All buffers contained 0.1% PEG 8000 (Sigma-Aldrich, St. Louis, MO), 5 mM cysteine, and 1.5 mM EDTA. Prior to the assay, the enzymes were activated in the assay buffer for 5 min at 37 °C.\nTo determine the effect of inhibitors on enzyme activity, the following substrates were used: Z-Arg-Arg-AMC (final concentration 5 μM, Z-RR-AMC; Bachem, Bubendorf, Switzerland) for cathepsin B endopeptidase activity, Abz-Gly-Ile-Val-Arg-Ala-Lys-(Dnp)-OH (final concentration 1 μM, Abz-GIVRAK-(Dnp)-OH; Bachem) for cathepsin B exopeptidase activity, and Z-Phe-Arg-AMC (final concentration 2 μM, Z-FR-AMC; Bachem) for cathepsin V and L activity. The substrate ([…]) at a final concentration and inhibitor ([…]) at a concentration of 50 μM were added to the wells of a black microplate. The reaction was then initiated by adding 90 μL of activated enzyme (final concentrations: 5 nM cathepsin B for its endopeptidase activity, 0.5 nM cathepsin B for its exopeptidase activity, 2.5 ng/mL for cathepsin V, and 0.02 nM for cathepsin L) in the assay buffer. The formation of fluorescent degradation products during the reaction was continuously monitored at 460 ± 10 nm with excitation at 380 ± 20 nm for Z-Arg-Arg-AMC and Z-Phe-Arg-AMC and at 420 ± 10 nm with excitation at 320 ± 20 nm for Abz-Gly-Ile-Val-Arg-Ala-Lys(Dnp)-OH at 37 °C on a Tecan Infinite M1000 (Mannedorf, Switzerland) spectrofluorometer. All assay mixtures contained 5% (v/v) DMSO. To prevent false-positive inhibition due to the formation of compound aggregates, 0.01% Triton X-100 was used. All measurements were performed in triplicate and repeated twice. The relative inhibition was calculated using the following equation: relative inhibition (%) = 100(1 – v i/v o), where v i and v o designate the reaction velocities in the presence and absence of inhibitor, respectively."}, "[2]": {"molecular_target": "T2, human serum albumin (HSA) (Homo sapiens, UniProt P02768)", "T2 construct": "purchased Sigma-Aldrich/Merck A8763", "T2 sequence (P02768 25-609)": "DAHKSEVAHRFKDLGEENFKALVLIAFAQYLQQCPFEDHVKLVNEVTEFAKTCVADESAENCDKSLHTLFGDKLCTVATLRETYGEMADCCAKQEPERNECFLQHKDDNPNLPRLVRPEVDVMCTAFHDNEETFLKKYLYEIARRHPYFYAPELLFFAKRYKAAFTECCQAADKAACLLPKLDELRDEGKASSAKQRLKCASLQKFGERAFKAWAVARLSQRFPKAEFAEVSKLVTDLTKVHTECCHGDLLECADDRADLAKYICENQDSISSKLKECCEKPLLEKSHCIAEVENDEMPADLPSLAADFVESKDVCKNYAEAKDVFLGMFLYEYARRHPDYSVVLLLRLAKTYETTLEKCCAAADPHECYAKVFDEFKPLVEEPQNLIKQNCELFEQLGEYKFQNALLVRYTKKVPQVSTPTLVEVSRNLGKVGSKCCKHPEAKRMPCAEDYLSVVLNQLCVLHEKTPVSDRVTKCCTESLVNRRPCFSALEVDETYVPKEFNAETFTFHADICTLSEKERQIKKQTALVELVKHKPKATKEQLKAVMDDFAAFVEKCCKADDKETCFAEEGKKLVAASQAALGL", "experiment": "Membrane ultrafiltration with HSA", "type": "binding", "conditions": "1:2 protein-to-complex ratio (25 μM HSA, 50 μM complex), pH 7.4", "experimental": "To characterize the binding strength of the complex to HSA, the UV–vis spectrum of the complex was recorded in the presence of different amounts of the protein (Figure ). The gradual spectral changes leveled off at about 0.5 equiv of the protein, indicating at least two binding sites. However, from these spectral changes, no formation constants could be calculated due to the overlapping processes.\nMilli-pore, Amicon Ultra-0.5 membrane filters (10 kDa) were used to separate samples containing 25 μM HSA and 50 μM complex (1:2 biomolecule-to-complex ratio) into low and high molecular mass (LMM and HMM) fractions as described in our former work. UV–vis spectrophotometry was used to determine the concentration of the nonbound compounds in the LMM fractions by comparing to a reference sample without the protein."}, "[3]": {"experiment": "Stability of complex 4 in DMSO followed by 1H NMR", "type": "physicochemical", "experimental": "A Bruker Avance III HD Ascend 500 Plus instrument (Billerica, MA) was used for solution NMR studies. Spectra were recorded with a WATERGATE water suppression pulse scheme in the presence of 10% (v/v) D2O in most cases. DSS internal standard was added to samples to obtain reference peaks."}, "Colo205 cells": {"tested_on": "Colo205 cells", "experiment": "MTT cytotoxicity assay, Colo205", "type": "cell-based, human", "conditions": "72 h incubation, MTT; read-out: IC50 Colo205", "experimental": "Its cytotoxicity was determined in the human HeLa cervical cancer cell line, the drug-sensitive Colo205 and its resistant counterpart, the ABCB1 expressing Colo320 colon adenocarcinoma cancer cell lines, using the colorimetric 3-(4,5-dimethylthiazol-2-yl)-2,5-diphenyltetrazolium bromide (MTT) test. To investigate the selectivity toward cancer cells, the noncancerous fibroblast CCD-19Lu cell line was included.\nDrug-sensitive Colo205 (ATCC-CCL-222) and ABCB1 (MDR1)-LRP expressing and doxorubicin-resistant Colo320/MDR-LRP (ATCC-CCL-220.1) human colonic adenocarcinoma cell lines were purchased from LGC Promochem (Teddington, U.K.). The cells were cultured in RPMI 1640 medium supplemented with 10% heat-inactivated fetal bovine serum, 2 mM L-glutamine, 1 mM Na-pyruvate, and 10 mM HEPES.\nThe tested compound was dissolved in DMSO to prepare a 5 mM stock solution, which was diluted in complete culture medium, to study the effect of compounds on cell growth of human colonic adenocarcinoma cell lines. Doxorubicin was used as the positive control. The cells were treated with a trypsin-versene (EDTA) solution. Cells were adjusted to a density of 1 × 10^4 cells in 100 μL of the appropriate culture medium and were added to each well, with the exception of the medium control wells. Except for the semiadherent Colo205 and Colo320 cell lines, the other adherent cell lines were seeded 24 h prior to the assay. Then, stock solutions were diluted in the appropriate culture medium, and 2-fold serial dilutions of compounds were prepared in 100 μL of the medium, horizontally. The final volume of the wells containing compounds and cells was 200 μL. The plates were incubated at 37 °C for 72 h; at the end of the incubation period, 20 μL of MTT solution (from a stock solution of 5 mg/mL) was added to each well. […] Cell growth was determined by measuring the optical density (OD) at 540/630 nm with a Multiscan EX ELISA reader (Thermo Labsystems, Cheshire, WA). […]"}}}
{"smiles": "N#Cc1ccccc1.[C-]#[O+].[C-]#[O+].[C-]#[O+].[O-]n1ccccc1=S.[Re+]", "note": "[complex 4, fac-[Re(CO)3(pth)(benzonitrile)]]", "values": [{"measurement": "relative inhibition cathepsin B exopeptidase", "setting": "[1]", "value": "37.5 ± 2.1", "unit": "%"}, {"measurement": "unbound complex in low molecular mass fraction", "setting": "[2]", "value": "~10", "unit": "%"}, {"measurement": "maximum nontoxic concentration", "setting": "Vero cells", "value": 6.25, "unit": "µM"}, {"measurement": "bidentate pyrithione ligand coordination to rhenium(I)", "setting": "[3]; 48 h monitoring period, light-exclusion", "value": "remained coordinated"}, {"measurement": "time for complete replacement of benzonitrile with a solvent molecule", "setting": "[3]; light-exclusion conditions, 1H NMR", "value": "≤ 1", "unit": "h"}, {"measurement": "IC50", "setting": "Colo205 cells", "value": "9.22 ± 0.53", "unit": "µM"}]}
